Measured values: ChEMBL document CHEMBL3244389, “Cephalosporin degradations” (J Med Chem, 1977)
Each block holds one compound with its values, some of them ahead of it.

Columns and labels:
[1] = Retardation factor of the compound in deionized water at 1 g at pH 3.3 after 90 mins by TLC analysis; format: physicochemical; conditions: pH 3.3, 1.5 h
[2] = Drug degradation in deionized water assessed as 3-hydroxy-4-methyl-2(5H)-thiophenone level at 100 mg at pH 3.3 after 90 mins by IR/TLC analysis; format: physicochemical; conditions: pH 3.3, 1.5 h
[3] = Drug degradation in deionized water assessed as 5,3-formyl-3,6-dihydro-6-phenyl-2,5(lH,4H)-pyrazinedione level at 100 mg at pH 3.3 after 90 mins by IR/TLC analysis; format: physicochemical; conditions: pH 3.3, 1.5 h
[4] = Drug degradation in oxygen-18 enriched water assessed as 5,3-formyl-3,6-dihydro-6-phenyl-2,5(lH,4H)-pyrazinedione level at 60 mg by mass spectroscopic analysis; conditions: in vivo
[5] = Drug recovery in Purdue-Wistar rat feces at 1.6 mg/ml, po after 24 hrs; conditions: faeces
[6] = Drug recovery in ICR mouse feces at 1.6 mg/ml, po after 24 hrs; conditions: faeces
[7] = tested on: Mus musculus; test: Toxicity in po dosed ICR mouse; format: organism-based; conditions: in vivo

Rf [1]: 0.78
Structure (SMILES): O=CC1NC(=O)C(c2ccccc2)NC1=O (stereo not drawn)

Rf [1]: 0.91
Structure (SMILES): CC1=C(O)C(=O)SC1

Stability [2]: Unstable
Stability [3]: Unstable
Stability [4]: Unstable
Structure (SMILES): CC1CSC(C2NC(=O)C(c3ccccc3)NC2=O)N=C1C(=O)[O-].[Na+] (stereo not drawn)

Structure (SMILES): CC1=C(C(=O)O)N2C(=O)[C@@H](NC(=O)[C@H](N)c3ccccc3)[C@H]2SC1 [CEPHALEXIN ANHYDROUS]
dose excreted at 24 h [5]: 99%
dose excreted at 24 h [6]: 99%

Structure (SMILES): CC1=C(C(=O)O)N2C(=O)[C@@H](NC(=O)[C@H](N)c3ccccc3)[C@H]2SC1.O [CEPHALEXIN]
LD [7]: > 5000 mg/kg
